From patent publication US20230381069A1, “TOPICAL COMPOSITIONS AND METHODS OF USING THEREOF” (OHIO STATE INNOVATION FOUNDATION, priority 2016, published 2023)

Experiment: Photolysis of thin films in petroleum jelly on quartz plates under a UV photolysis lamp
Format: physicochemical
Procedure: A UV photolysis lamp having a light flux of 320 mW equipped with a cutoff filter at 270-280 nm was used to evaluate the performance and stability of the sunscreen compositions prepared herein. With 3 min of exposure to the UV lamp (same position as sample, after the filter), a clear damage was observed on human skin. Typically, under hot sun, this sunburn process takes 30 min to an hour. Accordingly, the photolysis lamp used for analysis is considerably more intense than natural sunlight.
FIGS. 4A and 4B compare the stability of avobenzone dispersed in petroleum jelly with avobenzone encapsulated in encapsulated in zeolite nanoparticles (10% zeolite, 1% AB) dispersed in petroleum jelly.
FIG. 7 is a plot showing the long-term stability of avobenzone/nanozeolite formulations. The absorption spectra of a thin film of avobenzone encapsulated in zeolite nanoparticles (10% zeolite, 1% AB) dispersed in petroleum jelly on quartz plates was obtained following 0, 3, 5, and 12 hours of irradiation using a UV photolysis lamp.

COc1ccc(C(=O)CC(=O)c2ccc(C(C)(C)C)cc2)cc1 [avobenzone]
AB decomposition in the presence of 1% OMC (octinoxate) (petroleum jelly, photolysis for 4 hours, FIGS. 8A/8B): AB decomposition was observed after the first hour of photolysis | degradation of avobenzone via UV spectroscopy (long-term stability) (thin film in petroleum jelly, 0, 3, 5 and 12 hours of irradiation, FIG. 7): complete degradation of the avobenzone was observed within four hours
